From PubChem BioAssay AID463203 (Broad Institute, 2010) come the findings set out here.

The experiment has as its target Glycogen synthase kinase-3 alpha (Homo sapiens) (UniProt P49840). The experiment is described as follows: concentration-response blocking of human GSK3A – biochemical, luminescence, cell-free homogeneous, retest, dose response (AID 463203). The note with it: GSK-3 alpha enzyme, ADP-Glo luminescence, 60 min. For orientation: ADP-Glo first removes unused ATP, then detects ADP through luciferase.

SMILES strings stand for the structures. Activity calls are given as the source filed them.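 The calls were made as follows: active = more than half of replicate measurements showing over 20% loss of kinase signal relative to plate controls; inconclusive = some but at most half of replicates over 20% loss; inactive = no replicate over 20% signal loss.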

Sequence of Glycogen synthase kinase-3 alpha (Homo sapiens) (P49840 whole entry, looked up): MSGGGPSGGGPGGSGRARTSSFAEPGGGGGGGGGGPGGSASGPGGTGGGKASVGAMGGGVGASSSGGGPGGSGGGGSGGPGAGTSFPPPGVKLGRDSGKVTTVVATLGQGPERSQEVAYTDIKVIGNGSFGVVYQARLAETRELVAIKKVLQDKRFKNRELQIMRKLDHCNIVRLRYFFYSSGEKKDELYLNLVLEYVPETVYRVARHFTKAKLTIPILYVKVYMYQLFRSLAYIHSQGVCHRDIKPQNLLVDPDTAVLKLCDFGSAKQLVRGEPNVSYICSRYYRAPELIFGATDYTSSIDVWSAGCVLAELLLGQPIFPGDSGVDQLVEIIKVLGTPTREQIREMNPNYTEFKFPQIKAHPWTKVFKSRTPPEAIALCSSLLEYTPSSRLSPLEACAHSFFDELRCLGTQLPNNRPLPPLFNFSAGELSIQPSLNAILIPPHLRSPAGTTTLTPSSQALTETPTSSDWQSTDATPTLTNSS

Broadly, the AC50 is the concentration at which the activity in the assay is half-maximal. As for `COc1ccccc1N/C=C/c1onc(C)c1[N+](=O)[O-]`, the AC50 was > 30 µM (inactive). With `COc1cc(O)cc2c1C(=O)OC(C)CCCC(=O)CCC/C=C\2` (stereo unspecified), the AC50 is > 30 µM (inactive).

Regarding `CC(/C=N/NC(=O)c1nnn(-c2nonc2N)c1C(C)C)=C\c1ccco1`, the AC50 is > 30 µM (inactive). Take `COc1cc(/C=N/NC(=O)CSCc2ccc([N+](=O)[O-])cc2)cc(OC)c1OC`: the AC50 was > 30 µM (inactive). Turning to `N/C(=N\OC(=O)c1ccco1)c1ccc(Cl)cc1`, the AC50 was > 30 µM (inactive). As for `Nc1nonc1-n1nnc(C(=O)N/N=C/c2ccccc2Cl)c1-c1ccccc1`, the AC50 was > 30 µM (inactive). With `CCOc1c(O)ccc(/C=C2\SC(=S)NC2=O)c1[N+](=O)[O-]`, the AC50 is 20.8 µM. `CS(=O)(=O)N1CCN(c2ccc(NC(=O)c3ccc(Br)o3)cc2)CC1`: the AC50 is > 30 µM (inactive). With `Brc1ccc(-c2nnc3ccc(Nc4ccccc4)nn23)cc1`, the AC50 was > 30 µM (inactive). As to `COc1cc(NC(=O)c2nnn(Cc3ccc(SC)cc3)c2N)cc(OC)c1`, the AC50 was 13.6 µM. The same measure for `Cc1cc(Nc2ccc(C(=O)O)cc2)nc(N)n1`: > 30 µM (inactive); for `O=C(CSc1nnc(-c2ccc(O)cc2)o1)Nc1cccc(O)c1`: 21.6 µM; for `Cc1cccc(C)c1OCC(O)CNC(C)c1ccccc1` (stereo unspecified): > 30 µM (inactive). The same measure for `O=C(CSc1nc2[nH]ncc2c(=O)n1-c1ccccc1)NCCc1ccccc1`: 8.62 µM; for `O=c1[nH]c(=S)n(C2CC2)c(O)c1C=NCc1cccnc1`: 28.2 µM; for `O=C(O)c1cccc2c1C(=O)c1ccc(Cl)cc1S2(=O)=O`: > 30 µM (inactive). On to `O=C1NC(=Nc2ccccc2Cl)S/C1=C\c1cccc([N+](=O)[O-])c1O`, for which the AC50 is 24 µM. Under `C=C(C)CSc1nnc([C@@H](N)Cc2c[nH]c3ccccc23)o1` stands > 30 µM (inactive); under `CCCCNc1nc(N)nc(-c2cc(Cl)ccc2O)n1`, 3.04 µM. Turning to `Cc1cnc(NC(=O)C2CC(=O)N(c3cccc(Cl)c3)C2)s1` (stereo unspecified), the AC50 is 12.6 µM. As to `C[C@H](CO)N1C[C@H](C)[C@@H](CN(C)S(=O)(=O)c2ccccc2)Oc2c(NC(=O)c3ccncc3)cccc2C1=O`, the AC50 is > 30 µM (inactive). Under `CCOc1ccc(N2C(=O)C3C(c4ccccc4F)NN(C(=O)c4ccc(C)cc4)C3C2=O)cc1` (stereo unspecified) stands > 30 µM (inactive); under `CC(C)(C)NCC(O)COc1ccccc1C(C)(C)C` (stereo unspecified), > 30 µM (inactive); under `Cc1ccc(C(=O)N2NC(c3ccc(F)cc3)C3C(=O)N(c4ccc(C)cc4)C(=O)C32)cc1` (stereo unspecified), > 30 µM (inactive). The same measure for `COc1ccc(CCn2cnc(=O)c(C#N)c2C)cc1OC`: > 30 µM (inactive). Under `Cc1ccc2c(c1)N(CCC(=O)NC(C)C)C(=O)CO2` stands > 30 µM (inactive); under `COc1ccc(-c2cnc(N)nc2-c2ccc(OC)cc2O)cc1`, 9.75 µM.

On to `O=C1c2ccccc2-c2onc3ccc(NCc4ccco4)c1c23`, for which the AC50 is > 30 µM (inactive). Under `Cc1oc2c(Cl)c(Cl)c(O)c(CN(C)C)c2c1C(=O)c1ccc(Cl)cc1` stands 7.71 µM. The same measure for `O=C(CCCN1C(=O)C2CCCCN2C1=O)N1CCN(c2ccc([N+](=O)[O-])cc2)CC1` (stereo unspecified): > 30 µM (inactive); for `Cn1cc([N+](=O)[O-])c(C(=O)Nc2cnn(Cc3ccc(F)cc3)c2)n1`: > 30 µM (inactive). The same measure for `O=C(CSc1cccc2cccnc12)N/N=C/c1ccc(O)cc1`: > 30 µM (inactive); for `Cc1ccc(C(=O)c2cnc3cc4c(cc3c2S(=O)(=O)c2ccccc2)OCCO4)cc1`: > 30 µM (inactive). Regarding `O=C(O)Cn1c(=O)c2c3c(sc2n(Cc2ccccc2)c1=O)CCCC3`, the AC50 is > 30 µM (inactive). Under `COc1ccccc1C(CNc1ccc(S(=O)(=O)N2CCCC2)cc1[N+](=O)[O-])N(C)C` (stereo unspecified) stands > 30 µM (inactive); under `COc1ccc(C(=O)NC(=O)CSc2nnc(-c3ccco3)n2-c2ccccc2)cc1`, > 30 µM (inactive).

With `O=C(O)c1ccc(Nc2nc(-c3cccnc3)nc3ccccc23)cc1`, the AC50 was 9.3 µM.

For `COC(=O)c1cc(OC)nc2ccc(Br)cc12`, the AC50 is > 30 µM (inactive). In the case of `Nc1ncc(-c2ccccc2)c(-c2ccc(OCc3ccccc3)cc2O)n1`, the AC50 was > 30 µM (inactive). In the case of `Cc1ccc(-c2c3c(nc4sc(C(N)=O)c(N)c24)CCC3)cc1`, the AC50 is 5.39 µM. Under `Cc1onc(-c2c(F)cccc2Cl)c1C(=O)OCC(=O)Nc1c(C)n(C)n(-c2ccccc2)c1=O` stands > 30 µM (inactive); under `NC(=O)c1sc2nc3c(c(-c4ccccc4)c2c1N)CCC3`, 13.9 µM; under `Cc1nn2cc(-c3ccccc3)nc2[nH]c1=O`, > 30 µM (inactive).

Consider `S=c1sc2ccccc2n1CCc1ccncc1`, for which the AC50 was 4.51 µM. The same measure for `O=C1/C(=C/c2cccc([N+](=O)[O-])c2)N2CCC1CC2`: > 30 µM (inactive); for `Cc1ccc(-c2cn3cccnc3n2)cc1NC(=O)c1c(-c2ccccc2Cl)noc1C`: > 30 µM (inactive); for `O=C1CNC(=S)N1CCCn1ccnc1`: > 30 µM (inactive). The same measure for `CCSc1nnc([C@@H](N)Cc2c[nH]c3ccccc23)o1`: > 30 µM (inactive); for `CC(=O)Nc1ccc(C(=O)OCC(=O)Nc2c(C)n(C)n(-c3ccccc3)c2=O)cc1`: > 30 µM (inactive). Under `O=C(O)c1ccc(N=Nc2c(O)[nH]c3ccc(Br)cc23)cc1` stands 3.54 µM; under `Cn1ccnc1SCC(=O)Nc1ccc(Cl)cn1`, 23.1 µM; under `O=C(Nc1ncc([N+](=O)[O-])s1)C1CC(=O)N(c2ccc(F)cc2)C1` (stereo unspecified), 12.4 µM. On to `CCCOc1ccccc1NC(=O)Nc1ccccc1Cl`, for which the AC50 was > 30 µM (inactive). The same measure for `COc1ccc2nc(SCc3nc(N)nc(Nc4ccccc4)n3)[nH]c2c1`: 12.5 µM; for `O=C(N/N=C/c1ccc(Cl)c(Cl)c1)c1ccc2nc[nH]c2c1`: > 30 µM (inactive). The same measure for `CN(C)Cc1c(C(=O)N/N=C/c2ccc(-c3ccccc3)cc2)nnn1-c1nonc1N`: > 30 µM (inactive); for `CCn1c(SCC(=O)N/N=C/C=C\c2ccco2)nc2ccccc21`: > 30 µM (inactive); for `CN(C)C(=O)c1ccc(NC(=O)c2cc(-n3cnnc3)ccc2Cl)cc1`: > 30 µM (inactive). `CC(C)(C)c1ccc(CSc2nnc(-c3ccccc3NC(=O)c3ccccc3)o2)cc1`: the AC50 was > 30 µM (inactive). The same measure for `COc1ccc(-c2noc(CSc3nc(N)c(-c4ccccc4)c(=O)[nH]3)n2)cc1`: > 30 µM (inactive); for `CC(C)COc1ncnc2c1sc1nc3c(cc12)COC(C)(C)C3`: > 30 µM (inactive); for `COC(=O)c1cnn(C(=O)c2ccccc2Br)c1N`: > 30 µM (inactive). The same measure for `Nc1nonc1-n1nnc(C(=O)N/N=C/c2ccco2)c1-c1ccccc1`: 18.5 µM; for `O=C(OCC1OC2OC3(CCCCC3)OC2C2OC3(CCCCC3)OC12)c1ccccc1` (stereo unspecified): > 30 µM (inactive). The same measure for `O=Cc1cn(-c2ccccc2)nc1-c1cccnc1`: > 30 µM (inactive); for `Cc1ccc(S(=O)(=O)N2C(=O)/C(=C3\SC(=S)NC3=O)c3ccccc32)cc1`: > 30 µM (inactive); for `Cc1nc2ncnn2c(C)c1Cc1c(Cl)cccc1Cl`: > 30 µM (inactive).

As for `COC(=O)c1ccc(CSc2nnc(-c3ccncc3)n2Cc2ccccc2)o1`, the AC50 is > 30 µM (inactive). The same measure for `CN(C)C(=O)Oc1ccc2c(c1)O/C(=C\c1cccc([N+](=O)[O-])c1)C2=O`: > 30 µM (inactive). The same measure for `COc1ccc(-c2ncncc2-c2ccccc2)c(O)c1`: 13.2 µM; for `N#CCCn1cc(C(=O)N2CCCCC2)c(-c2cccc([N+](=O)[O-])c2)n1`: > 30 µM (inactive); for `O=C(CSc1nnc(-c2ccc(O)cc2)o1)Nc1ccccc1`: 16.3 µM. The same measure for `O=C(CCc1nnc(-c2ccc3c(c2)OCO3)o1)N1CCC(c2ccc(F)cc2)C1` (stereo unspecified): 10 µM; for `COCCCNc1c2c(nc3nnnn13)CCCC2`: > 30 µM (inactive); for `COc1ccc(N=c2oc3c(OC)cccc3cc2C(=O)NCc2ccco2)c(OC)c1`: > 30 µM (inactive). As for `CCCCn1c(SCC(=O)Nc2sc3c(c2C(N)=O)CCC3)nnc1-c1ccccc1`, the AC50 was > 30 µM (inactive). Under `O=C(c1ccc2c3n(nc2c1)-c1ccc(Cl)cc1CO3)N1CCOCC1` stands > 30 µM (inactive); under `CCOc1ccc(Nc2nc(N(C)c3ccccc3)nc(N)c2[N+](=O)[O-])cc1`, > 30 µM (inactive); under `O=C(NC1(C(F)(F)F)NC(=O)N(Cc2cccnc2)C1=O)c1ccncc1` (stereo unspecified), > 30 µM (inactive). The same measure for `COc1ccccc1N=c1oc2cc(O)ccc2cc1C(=O)NCC1CCCO1` (stereo unspecified): > 30 µM (inactive); for `Fc1ccc(-c2nnc3ccc(N4CCCC4)nn23)cc1`: 5.64 µM; for `Cc1ccc(SCCc2cc[n+](CC(=O)c3ccccc3)cc2)cc1`: > 30 µM (inactive). Under `COc1ccc2nc(NC(=O)CSc3nc4ccccc4o3)sc2c1` stands 28.8 µM; under `COc1ccc(-c2cc(C(F)(F)F)nc(SCC(=O)NCc3cccs3)n2)cc1`, > 30 µM (inactive). For `Cc1c(CN(C)C)c2c(n1Cc1ccccc1)C(=O)c1ccccc1-2`, the AC50 was > 30 µM (inactive). Under `O=C(NCCCn1ccnc1)C(=O)NC1CCCCC1` stands > 30 µM (inactive); under `CC(CC(=O)Nc1ncc([N+](=O)[O-])s1)c1ccccc1` (stereo unspecified), 5.94 µM. Under `N#C/C(=N\Nc1cccc(F)c1)C(=O)C1CC1` stands > 30 µM (inactive); under `CN(C(=O)/C=C/c1ccc2c(c1)OCO2)c1ccccc1`, 6.73 µM. Under `Cc1ccc(N=Nc2c(O)ccc3n[nH]nc23)cc1` stands 4.23 µM; under `Cn1c(SCc2nc(-c3ccc(Cl)cc3)no2)nnc1-c1ccccc1`, > 30 µM (inactive).
